Experimental findings from US10988465B2, “CXCR4 inhibitors and uses thereof” (X4 Pharmaceuticals, Inc., priority 2016, dated 2021) are described below.

Each structure is given as a SMILES string. Several values for one entry are separate records, joined by “and”; a condition that tells them apart may be missing. Equal entries are not always repeated. Where two headings read alike, the source gives them in different places.

Series [1] in a line: 7-day toxicology study in mice (clinical observations, body weight, food consumption, necropsy, hematology). The series is classed as in vivo, male C57BL/6 mice. Conditions: for WBC (10^9/L), Mean: group mean; for WBC (10^9/L), Mean / WBC (10^9/L): day 8, 24 hours after last dose; for WBC (10^9/L): individual animal. The protocol: Example 41: 7-Day Toxicology Study in Mice
Blood samples were taken on day 8, 24 hours after last dose.

Series [2] in a line: MTD, pharmacokinetics and brain penetration after PO administration. Conditions: male; for half-life: MTD mouse, read-out: t½ (converted); for AUC(0-t): C57BL/6, mouse. The series is classed as in vivo, male C57BL/6 mice. The protocol:
All PO dosing solutions were prepared in 50 mM citrate buffer (pH 4.0).
The blood collection was performed as follows: the animal was restrained manually at the designated time points, approximately 500 μL of blood sample was collected via cardiac puncture vein into EDTA-2K tubes. The whole blood needed to be divided into two parts; one part was placed in the tube containing EDTA-2K for plasma generation and the other was used for the hematology assay, respectively. The blood samples for plasma generation were maintained in wet ice first and centrifuged to obtain plasma (2000 g, 4° C., 5 min) within 15 minutes post sampling. The brain collection was performed as follows: a mid-line incision was made in the animal's scalp and the skin was retracted. Using small bone cutters and rongeurs, the skull overlying the brain was removed. The brain was removed using a spatula and rinsed with cold saline. The brain was placed in screw-top tubes, and then stored at −70° C. until analysis. The CSF collection was performed as follows: a mid line incision was made on the neck. The muscle under the skin was cut to expose the cisterna magna. The cisterna magna was penetrated with the sharp end of one capillary (Burn one end of capillary to make it sharp). The CSF was sucked spontaneously into the capillary.
Plasma sample preparation: An aliquot of 30 μL sample was added with 100 μL MeCN containing 100 ng/mL IS (Dexamethasone). The mixture was vortexed for 10 min and centrifuged at 5800 rpm for 10 min. An aliquot of 40 μL supernatant was added to 40 μL H2O and the mixture was vortexed for 5 min. An aliquot of 2 μL supernatant was injected for LC-MS/MS analysis.
An aliquot of 30 μL brain homogenate (brain:PBS=1:3, w/v) sample was added to 100 μL MeCN containing 100 ng/mL IS (Dexamethasone). The mixture was vortexed for 10 min and centrifuged at 5800 rpm for 10 min. An aliquot of 40 μL supernatant was added to 40 μL H2O and the mixture was vortexed for 5 min. An aliquot of 2 μL supernatant was injected for LC-MS/MS analysis.
An aliquot of 3 μL sample was added to a mixture of 6 μL CSF, 9 μL MeOH/H2O (1/1), 40 μL MeCN containing 200 ng/mL IS (Dexamethasone), and 116 μL H2O. The mixture was vortexed for 5 min. An aliquot of 4 μL was injected for LC-MS/MS analysis.
The sample analysis was performed on UPLC-MS/MS-02 (Triple Quad™ 4000) under the following conditions: positive ion, ESI, MRM detection using dexamethasone as internal standard. HPLC conditions: mobile phase A: H2O-0.1% formic acid, mobile phase B: MeCN-0.1% formic acid on: ACQUITY UPLC HSS T3 (2.1×50 mm, 1.8 μm) at 60° C.

The nature of series [3]: Mouse brain uptake assay (MBUA), 3 mg/kg IV, 0-24 h, 4 time points. Format: in vivo, male CD1 mice. The protocol: Example 38: Pharmacokinetics and Brain Penetration Experiment to Determine Brain and Plasma Concentrations of Compounds after IV Administration to Male CD1 Mice
The study design (9 animals) consisted of administrating the drug (IV: 3 mg/kg (5 mL/kg) via tail vein injection) and collecting samples at terminal bleeding for plasma and brain at 0.083, 0.5 and 1 h. The IV dosing solution was prepared in 50 mM citrate buffer (pH 4.0) at 0.6 mg/mL. The blood collection was performed as follows: the animal was restrained manually and approximately 150 μL blood/time point was collected into a dipotassium EDTA tube via retro orbital puncture under anesthesia with isoflurane. The blood sample was put on ice and centrifuged to obtain a plasma sample (2000 g, 5 min under 4° C.) within 15 minutes. The brain collection was performed as follows: a mid-line incision was made in the animal's scalp and the skin was retracted. Using small bone cutters and rongeurs, the skull overlying the brain was removed. The brain was removed using a spatula and the brain rinsed with cold saline. The brain was placed in screw-top tubes, and the tubes were stored at −70° C. until analysis.
An aliquot of 30 μL sample was added to 150 μL MeCN containing 50 ng/mL IS (Dexamethasone). The mixture was vortexed for 5 min and centrifuged at 14,000 rpm for 5 min. An aliquot of 5 μL supernatant was injected for LC-MS/MS analysis.
An aliquot of 30 μL brain homogenate (brain:PBS=1:3, w/v) sample was added to 150 μL IS in MeCN (Dexamethasone, 50 ng/mL). The mixture was vortexed for 5 min and centrifuged at 14,000 rpm for 5 min. An aliquot of 5 μL supernatant was injected for LC-MS/MS analysis.
The sample analysis was performed on LCMS/MS-003 (API4000, triple quadruple) under the following conditions: positive ion, ESI, MRM detection using dexamethasone as internal standard. HPLC conditions: mobile phase A: H2O (0.025% formic acid (FA) with 1 mM NH4OAc); mobile phase B: MeOH (0.025% FA with 1 mM NH4OAc) on Waters X-Bridge C18 (2.1×50 mm, 2.5 μm) column at 60° C.
A similar experiment was performed with 4 time points taken from 0-24 h.

As for `Cc1cccnc1[C@@H]1CCC[C@H](c2nc3cccc(N4CCN(C)CC4)c3[nH]2)N1C` (racemic) [I-3, 2-((2R,6S)-1-methyl-6-(3-methylpyridin-2-yl)piperidin-2-yl)-7-(4-methylpiperazin-1-yl)-1H-benzo[d]imidazole], the “WBC (10^9/L), Mean” value in series [1] (Group 2, PO-10 mg/kg) is listed as 4.92 10^9/L; in series [1] (Group 3, PO-30 mg/kg), 8.58 10^9/L; in series [1] (Group 4, PO-100 mg/kg), 18.7 10^9/L. For the same compound, the “WBC (10^9/L)” value in series [1] (Group 2, PO-10 mg/kg, 10 mg/kg) is 3.67 10^9/L and 6.66 10^9/L and 4.44 10^9/L; in series [1] (Group 3, PO-30 mg/kg, 30 mg/kg), 11.6 10^9/L and 6.51 10^9/L and 7.69 10^9/L; in series [1] (Group 4, PO-100 mg/kg, 100 mg/kg) it was 20.4 10^9/L. Moreover, the necropsy finding result in series [1] (dose of 30 mg/kg P.O., 7 days) is listed as “One mouse had an enlarged kidney”. Further, the white blood cells result in series [1] (dose of 100 mg/kg P.O., 7 days) was “sustained increase”. Also, the “overt toxicity (clinical observations, body weight, food consumption)” value in series [1] (male C57BL/6 mice, 7 days repeat dosing up to 100 mg/kg/day by oral gavage) was “no overt signs of toxicity”. In series [1] (male C57BL/6 mice, 7 days, up to 100 mg/kg/day by oral gavage), the body weight result is “remained stable”. Besides, the half-life in series [2] (C57BL/6, in vivo, single administration, D 1-50 mg/kg) was 3.3 h; in series [2] (C57BL/6, plasma, multiple administration, D 5-300 mg/kg) it was 6.1 h. Moreover, the AUC(0-t) in series [2] (brain, multiple administration, D 5-300 mg/kg, read-out: AUClast (b)) is 384000 ng·h/mL; in series [2] (brain, single administration, D 1-50 mg/kg, read-out: AUClast (b)), 15500 ng·h/mL; in series [2] (plasma, multiple administration, D 5-300 mg/kg, read-out: AUClast (p)), 142000 ng·h/mL; in series [2] (plasma, single administration, D 1-50 mg/kg, read-out: AUClast (p)), 7100 ng·h/mL.
Consider `CN1CCN(c2cccc3nc([C@H]4CCC[C@@H](c5ncccc5Cl)N4)[nH]c23)CC1` (racemic) [I-122], for which the Kp (as a rule, tissue or fluid exposure divided by exposure in the circulation) in series [3] (male, CD1, mouse, brain/plasma, iv, 3 mg/kg) amounted to 4.17. Moreover, the clearance (usually a measure of how efficiently the substance is removed, as volume per time) in series [3] (male, CD1, plasma, mouse, 3 mg/kg IV, 0-24 h, 4 time points) was 26.2 mL/min/kg. For the same compound, the half-life in series [3] (male, CD1, plasma, mouse, 3 mg/kg IV, 0-24 h, 4 time points, read-out: t½ (converted)) was 3.5 h. Moreover, the AUC(0-t) in series [3] (male, CD1, brain, mouse, 3 mg/kg IV, 0-24 h, read-out: AUClast (b)) was determined as 7930 ng·h/mL; in series [3] (male, CD1, plasma, mouse, 3 mg/kg IV, 0-24 h, read-out: AUClast (P)) it was 1900 ng·h/mL. The compound further came in with a Kp uu in series [3] (male, CD1, unbound brain/unbound plasma, mouse, 3 mg/kg IV, 0-24 h) of 1.15. Besides, the fraction unbound worked out at 0.035 in series [3] (mouse, fraction unbound to brain proteins, read-out: Fu (b) %) and 0.127 in series [3] (mouse, fraction unbound to plasma proteins, read-out: Fu (p) %).
